Common to all, as to format: cell-based
For test [1], the target named is T1, TYK2 (Homo sapiens, UniProt P29597). Put plainly: TYK2 degradation MSD assay in human PBMC cells. Conditions: 4 to 24 hours incubation, read-out: TYK2 MSD DC50 rating in human PBMC. Details: endogenous in cells; host or cells: human PBMC. In outline: (§1)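 DC50 values reflect dose-dependent decrease of TYK2 protein, read by MSD after cells were exposed to compound (top 1 to 10 μM, 1:3, 9 doses) for 4 to 24 hours at 37° C.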

The target in test [2] is T1, TYK2. The experiment in a line: TYK2 degradation MSD assay in OCI-LY10 cells. Details: endogenous in cells; host or cells: EBV-B cells. Conditions: 4 to 24 hours incubation, read-out: TYK2 MSD DC50 rating in OCI-LY10. In outline: as §1
The target of test [3] is T1, TYK2. Put plainly: TYK2 degradation MSD assay in EBV-B cells. Set-up: endogenous in cells; host or cells: EBV-B cells. Particulars: 4 to 24 hours incubation, read-out: TYK2 MSD DC50 rating in EBV-B. In outline: as §1

DC50 data for 23 compounds are collected here from patent US20250051338A1, “TYK2 DEGRADERS AND USES THEREOF” (Kymera Therapeutics, Inc., priority 2021, published 2025).

The structures appear in SMILES notation.

What is called DC50 is the concentration at which degradation of the target reaches its halfway point.

T1 sequence (P29597 whole entry): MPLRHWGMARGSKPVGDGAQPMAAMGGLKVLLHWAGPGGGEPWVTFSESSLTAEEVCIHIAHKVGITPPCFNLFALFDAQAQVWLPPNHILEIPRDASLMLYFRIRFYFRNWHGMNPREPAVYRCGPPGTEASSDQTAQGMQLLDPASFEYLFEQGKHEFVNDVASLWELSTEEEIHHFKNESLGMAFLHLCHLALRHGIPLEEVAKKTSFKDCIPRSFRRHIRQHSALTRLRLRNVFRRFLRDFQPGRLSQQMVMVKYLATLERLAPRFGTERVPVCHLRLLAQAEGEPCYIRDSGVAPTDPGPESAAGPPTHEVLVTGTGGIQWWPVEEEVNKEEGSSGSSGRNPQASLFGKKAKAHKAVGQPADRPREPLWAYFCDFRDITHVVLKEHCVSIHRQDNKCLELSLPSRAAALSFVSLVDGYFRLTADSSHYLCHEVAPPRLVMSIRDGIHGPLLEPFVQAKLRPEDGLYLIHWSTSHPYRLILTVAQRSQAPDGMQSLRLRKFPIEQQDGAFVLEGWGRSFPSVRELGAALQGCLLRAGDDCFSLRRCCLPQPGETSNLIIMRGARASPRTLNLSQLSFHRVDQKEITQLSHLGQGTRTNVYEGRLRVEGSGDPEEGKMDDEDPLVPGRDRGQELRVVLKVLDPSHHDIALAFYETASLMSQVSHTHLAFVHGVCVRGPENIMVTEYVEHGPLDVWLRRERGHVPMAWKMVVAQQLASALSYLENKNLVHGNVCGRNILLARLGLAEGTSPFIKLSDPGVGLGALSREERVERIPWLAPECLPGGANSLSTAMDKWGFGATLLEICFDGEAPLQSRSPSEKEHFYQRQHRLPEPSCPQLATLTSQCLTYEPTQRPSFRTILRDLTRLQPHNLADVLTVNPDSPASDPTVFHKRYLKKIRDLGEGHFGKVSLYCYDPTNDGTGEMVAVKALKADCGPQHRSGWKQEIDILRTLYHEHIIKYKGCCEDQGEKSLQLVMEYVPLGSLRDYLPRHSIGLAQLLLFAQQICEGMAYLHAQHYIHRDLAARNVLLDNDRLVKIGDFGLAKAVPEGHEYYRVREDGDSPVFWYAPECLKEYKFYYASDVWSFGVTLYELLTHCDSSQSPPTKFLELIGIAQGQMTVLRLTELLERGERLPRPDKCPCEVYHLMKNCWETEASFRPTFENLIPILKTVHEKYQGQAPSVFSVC

As to `CNc1cc(Nc2cccn(-c3ccc(C(=O)N4CCC(N5CC(c6ccc7c(c6)n(C)c(=O)n7C6CCC(=O)NC6=O)C5)CC4)cn3)c2=O)nn2c(C(=O)N[C@@H]3C[C@@H]3F)cnc12` (stereo partly drawn) [Example K410], the 50% degradation concentration (DC50) on TYK2 [1] is over 100 nM; on TYK2 [2], under 1 nM; on TYK2 [3] it was over 100 nM.
As for `Cn1c(=O)n(C2CCC(=O)NC2=O)c2cccc(C#CC3CCN(Cc4ccc(-c5cccc(Nc6ccc7ncc(C(=O)NC8CC8)n7n6)c5)nc4)CC3)c21` (stereo not drawn) [Example K412], the 50% degradation concentration (DC50) at TYK2 [1], on TYK2 [2] and on TYK2 [3] was over 100 nM each time.
Consider `CNc1cc(Nc2cccc(-c3ccc(CN4CCC(c5ccc(-c6ccc7c(c6)n(C)c(=O)n7C6CCC(=O)NC6=O)cc5)CC4)cn3)c2)nn2c(C(=O)NC3CC3F)cnc12` (stereo not drawn) [Example K413], for which the 50% degradation concentration (DC50) was over 100 nM at TYK2 [1], under 1 nM at TYK2 [2] and over 100 nM on TYK2 [3].
Take `CNc1cc(Nc2cccc(-c3ccc(CN4CCC(N5CC(c6cccc7c6n(C)c(=O)n7C6CCC(=O)NC6=O)C5)CC4)cn3)c2)nn2c(C(=O)N[C@@H]3C[C@@H]3F)cnc12` (stereo partly drawn) [Example K414]: the half-maximal degradation concentration (DC50) is over 100 nM at TYK2 [1], under 1 nM on TYK2 [2] and over 100 nM on TYK2 [3].
Consider `Cn1c(=O)n(C2CCC(=O)NC2=O)c2ccc(-c3ccc(N4CCN(Cc5ccc(-c6cccc(Nc7ccc8ncc(C(=O)NC9CC9)n8n7)c6)nc5)CC4)cc3)cc21` (stereo not drawn) [Example K415], for which the DC50 on TYK2 [1] was over 100 nM; on TYK2 [2], over 100 nM; on TYK2 [3], 1 to 10 nM.
As for `CNc1cc(Nc2cccn(-c3ccc(C(=O)N4CCC5(CN(CC#Cc6ccc7c(c6)n(C)c(=O)n7C6CCC(=O)NC6=O)C5)C4)cn3)c2=O)nn2c(C(=O)N[C@@H]3C[C@@H]3F)cnc12` (stereo partly drawn) [Example K416], the DC50 at TYK2 [1], at TYK2 [2] and on TYK2 [3] was over 100 nM in each case.
Regarding `CNc1cc(Nc2cccn(-c3ccc(C(=O)N4CCN(CC#Cc5ccc6c(c5)n(C)c(=O)n6C5CCC(=O)NC5=O)CC4)cn3)c2=O)nn2c(C(=O)N[C@@H]3C[C@@H]3F)cnc12` (stereo partly drawn) [Example K417], the DC50 at TYK2 [1], on TYK2 [2] and on TYK2 [3] was over 100 nM each time.
As for `CNc1cc(Nc2cccn(-c3ccc(C(=O)N4CC5(CC(CN6CCN(c7ccc8c(c7)n(C)c(=O)n8C7CCC(=O)NC7=O)CC6)CO5)C4)cn3)c2=O)nn2c(C(=O)N[C@@H]3C[C@@H]3F)cnc12` (stereo partly drawn) [Example K418], the DC50 on TYK2 [1] is over 100 nM; on TYK2 [2], under 1 nM; on TYK2 [3] it was over 100 nM.
In the case of `CNc1cc(Nc2cccn(-c3ccc(C(=O)N4CC(N5CCN(c6ccc7c(c6)n(C)c(=O)n7C6CCC(=O)NC6=O)CC5)C4)cn3)c2=O)nn2c(C(=O)N[C@@H]3C[C@@H]3F)cnc12` (stereo partly drawn) [Example K419], the values for the DC50 on TYK2 [1], on TYK2 [2] and on TYK2 [3] were over 100 nM, under 1 nM and over 100 nM, respectively.
For the compound `CNc1cc(Nc2cccn(-c3ccc(C(=O)N4CC5(CN(CCC#Cc6ccc7c(c6)n(C)c(=O)n7C6CCC(=O)NC6=O)CCO5)C4)cn3)c2=O)nn2c(C(=O)N[C@@H]3C[C@@H]3F)cnc12` (stereo partly drawn) [Example K420], the 50% degradation concentration (DC50) at TYK2 [1] is over 100 nM; on TYK2 [2] it was under 1 nM; at TYK2 [3], over 100 nM.
With `CNc1cc(Nc2cccn(-c3ccc(C(=O)N4CCC(OCC#Cc5cccc6c5n(C)c(=O)n6C5CCC(=O)NC5=O)CC4)cn3)c2=O)nn2c(C(=O)N[C@@H]3C[C@@H]3F)cnc12` (stereo partly drawn) [Example K421], the 50% degradation concentration (DC50) is over 100 nM on TYK2 [1], 1 to 10 nM on TYK2 [2] and over 100 nM at TYK2 [3].
As for `CNc1cc(Nc2cccn(-c3ccc(C(=O)N4CCC(CN5CCCN(c6ccc(-c7ccc8c(c7)n(C)c(=O)n8C7CCC(=O)NC7=O)cn6)CC5)CC4)cn3)c2=O)nn2c(C(=O)N[C@@H]3C[C@@H]3F)cnc12` (stereo partly drawn) [Example K422], the DC50 is over 100 nM on TYK2 [1], under 1 nM at TYK2 [2] and over 100 nM on TYK2 [3].
In the case of `CNc1cc(Nc2cccn(-c3ccc(C(=O)N4CCN(C(=O)C5CC(N6CCC(OCCCc7ccc8c(c7)n(C)c(=O)n8C7CCC(=O)NC7=O)CC6)C5)CC4)cn3)c2=O)nn2c(C(=O)N[C@@H]3C[C@@H]3F)cnc12` (stereo partly drawn) [Example K423], the half-maximal degradation concentration (DC50) was over 100 nM at TYK2 [1], 1 to 10 nM on TYK2 [2] and over 100 nM at TYK2 [3].
With `CNc1cc(Nc2cccn(-c3ccc(C(=O)C4CCC(C5CCN(c6ccc7c(c6)n(C)c(=O)n7C6CCC(=O)NC6=O)C5)CN4)cn3)c2=O)nn2c(C(=O)N[C@@H]3C[C@@H]3F)cnc12` (stereo partly drawn) [Example K424], the 50% degradation concentration (DC50) at TYK2 [1], on TYK2 [2] and at TYK2 [3] was over 100 nM each time.
On to `CNc1cc(Nc2cccn(-c3ccc(C(=O)C4CCC([C@H]5CCN(c6ccc7c(c6)n(C)c(=O)n7C6CCC(=O)NC6=O)C5)CN4)cn3)c2=O)nn2c(C(=O)N[C@@H]3C[C@@H]3F)cnc12` (stereo partly drawn) [Example K425], for which the DC50 at TYK2 [1], on TYK2 [2] and at TYK2 [3] was over 100 nM in each case.
With `CNc1cc(Nc2cccn(-c3ccc(C(=O)N4CCC5(CCCN(CCc6ccc7c(c6)n(C)c(=O)n7C6CCC(=O)NC6=O)C5)C4)cn3)c2=O)nn2c(C(=O)N[C@@H]3C[C@@H]3F)cnc12` (stereo partly drawn) [Example K426], the DC50 at TYK2 [1], on TYK2 [2] and at TYK2 [3] was over 100 nM in each case.
On to `CNc1cc(Nc2cccn(-c3ccc(C(=O)N(C)C4CCC(N5CCN(c6ccc7c(c6)n(C)c(=O)n7C6CCC(=O)NC6=O)CC5)CC4)cn3)c2=O)nn2c(C(=O)N[C@@H]3C[C@@H]3F)cnc12` (stereo partly drawn) [Example K427], for which the figures for the DC50 at TYK2 [1], on TYK2 [2] and at TYK2 [3] were over 100 nM, under 1 nM and over 100 nM, respectively.
For the compound `CNc1cc(Nc2cccn(-c3ccc(C(=O)NC4CCC(CN(C)C5CCN(Cc6ccc7c(c6)n(C)c(=O)n7C6CCC(=O)NC6=O)CC5)CC4)cn3)c2=O)nn2c(C(=O)N[C@@H]3C[C@@H]3F)cnc12` (stereo partly drawn) [Example K428], the figures for the DC50 on TYK2 [1], at TYK2 [2] and at TYK2 [3] were over 100 nM, under 1 nM and over 100 nM, respectively.
For `CNc1cc(Nc2cccn(-c3ccc(C(=O)N4CC(N5CCN(CCc6ccc7c(c6)n(C)c(=O)n7C6CCC(=O)NC6=O)CC5)C4)cn3)c2=O)nn2c(C(=O)N[C@@H]3C[C@@H]3F)cnc12` (stereo partly drawn) [Example K429], the values for the DC50 on TYK2 [1], at TYK2 [2] and on TYK2 [3] were over 100 nM, under 1 nM and 1 to 10 nM, respectively.
`CNc1cc(Nc2cccn(-c3ccc(C(=O)N[C@H]4CC[C@H](CN5CCC6(CC5)CN(Cc5cccc7c5n(C)c(=O)n7C5CCC(=O)NC5=O)C6)CC4)cn3)c2=O)nn2c(C(=O)N[C@@H]3C[C@@H]3F)cnc12` (stereo partly drawn) [Example K430]: the DC50 at TYK2 [1] was over 100 nM; on TYK2 [2] it was under 1 nM; at TYK2 [3] it was 1 to 10 nM.
For `CNc1cc(Nc2cccc(-c3ccc(CN4CCC(C#Cc5cccc6c5n(C)c(=O)n6C5CCC(=O)NC5=O)CC4)cn3)c2)nn2c(C(=O)N[C@@H]3C[C@@H]3F)cnc12` (stereo partly drawn) [Example K431], the DC50 on TYK2 [1] is over 100 nM; on TYK2 [2], 1 to 10 nM; at TYK2 [3], over 100 nM.
Take `CNc1cc(Nc2cccc(-c3ccc(CN4CCN(CC#Cc5cccc6c5n(C)c(=O)n6C5CCC(=O)NC5=O)CC4)cn3)c2)nn2c(C(=O)N[C@@H]3C[C@@H]3F)cnc12` (stereo partly drawn) [Example K432]: the values for the half-maximal degradation concentration (DC50) on TYK2 [1], on TYK2 [2] and on TYK2 [3] were over 100 nM, under 1 nM and over 100 nM, respectively.
Regarding `Cn1c(=O)n(C2CCC(=O)NC2=O)c2cccc(C#CCN3CCN(Cc4ccc(-c5cccc(Nc6ccc7ncc(C(=O)NC8CC8)n7n6)c5)nc4)CC3)c21` (stereo not drawn) [Example K433], the DC50 at TYK2 [1], on TYK2 [2] and at TYK2 [3] was over 100 nM in each case.
